ChEMBL document CHEMBL1201862, “PubChem BioAssay data set” (2004)
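1) Cells in 96-well plates. 2) Compound, 48 h, 5 concentrations. 3) Linear interpolation between surrounding doses. 4) Unreached endpoint = highest concentration. At the GI50, growth is halved.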 The source made the active and inactive calls. Rule as the data show it: active = GI50 up to about 1.1 µM and inactive = higher.

Columns and labels:
Experiment in all cases: NCI anticancer screen, dose series, 48 h
ACHN = tested on: ACHN
EKVX = tested on: EKVX
HCT-15 = tested on: HCT-15
HOP-62 = tested on: HOP-62
IGROV-1 = tested on: IGROV-1
K562 = tested on: K562
KM12 = tested on: KM12
M14 = tested on: M14
MDA-MB-231 = tested on: MDA-MB-231
NCI-H226 = tested on: NCI-H226
OVCAR-8 = tested on: OVCAR-8
SF-268 = tested on: SF-268
SK-MEL-2 = tested on: SK-MEL-2
SK-OV-3 = tested on: SK-OV-3
SN12C = tested on: SN12C
SNB-19 = tested on: SNB-19
TK-10 = tested on: TK-10
U-251 = tested on: U-251
UACC-257 = tested on: UACC-257
UO-31 = tested on: UO-31

Question: With `COC(=O)CCc1cc(OC)c(O)c(C(Cc2ccc(OC)c(OC)c2)C(=O)OC)c1` (stereo not given) as the compound, how does the GI50 (ACHN) read?
Answer: > 100 µM (inactive)

Question: What about the GI50 (EKVX) of the same compound?
Answer: > 100 µM (inactive)

Question: And the GI50 (HCT-15)?
Answer: > 100 µM

Question: What about the GI50 (HOP-62) of the same compound?
Answer: > 100 µM (inactive)

Question: What about the GI50 (IGROV-1) of the same compound?
Answer: > 100 µM (inactive)

Question: And the GI50 (K562)?
Answer: > 100 µM (inactive)

Question: And the GI50 (KM12)?
Answer: > 100 µM (inactive)

Question: What about the GI50 (M14) of the same compound?
Answer: > 100 µM (inactive)

Question: What about the GI50 (MDA-MB-231) of the same compound?
Answer: > 100 µM (inactive)

Question: And the GI50 (NCI-H226)?
Answer: > 100 µM (inactive)

Question: And the GI50 (OVCAR-8)?
Answer: > 100 µM (inactive)

Question: What about the GI50 (SF-268) of the same compound?
Answer: > 100 µM (inactive)

Question: What about the GI50 (SK-MEL-2) of the same compound?
Answer: > 100 µM (inactive)

Question: What about the GI50 (SK-OV-3) of the same compound?
Answer: > 100 µM (inactive)

Question: What about the GI50 (SN12C) of the same compound?
Answer: > 100 µM (inactive)

Question: What about the GI50 (SNB-19) of the same compound?
Answer: > 100 µM (inactive)

Question: What about the GI50 (TK-10) of the same compound?
Answer: > 100 µM (inactive)

Question: And the GI50 (U-251)?
Answer: > 100 µM (inactive)

Question: What about the GI50 (UACC-257) of the same compound?
Answer: > 100 µM (inactive)

Question: And the GI50 (UO-31)?
Answer: > 100 µM (inactive)

Question: With `CO/C=C(/C(=O)OC)c1ccccc1[C@H]1C[C@@H]1c1ccc(OC)cc1` as the compound, how does the GI50 (ACHN) read?
Answer: 22 µM (inactive)

Question: What about the GI50 (EKVX) of the same compound?
Answer: 14.3 µM (inactive)

Question: What about the GI50 (HCT-15) of the same compound?
Answer: 19.2 µM

Question: And the GI50 (HOP-62)?
Answer: 33.9 µM (inactive)

Question: What about the GI50 (IGROV-1) of the same compound?
Answer: 14.3 µM (inactive)

Question: What about the GI50 (K562) of the same compound?
Answer: 15.8 µM (inactive)

Question: And the GI50 (KM12)?
Answer: 18.4 µM (inactive)

Question: And the GI50 (M14)?
Answer: 18.3 µM (inactive)

Question: And the GI50 (MDA-MB-231)?
Answer: 25.5 µM (inactive)

Question: And the GI50 (NCI-H226)?
Answer: 30.2 µM (inactive)

Question: And the GI50 (OVCAR-8)?
Answer: 28.6 µM (inactive)

Question: And the GI50 (SF-268)?
Answer: 25.1 µM (inactive)

Question: What about the GI50 (SK-MEL-2) of the same compound?
Answer: 13.2 µM (inactive)

Question: And the GI50 (SK-OV-3)?
Answer: 17.8 µM (inactive)

Question: And the GI50 (SN12C)?
Answer: 32.1 µM (inactive)

Question: And the GI50 (SNB-19)?
Answer: 53.7 µM (inactive)

Question: What about the GI50 (TK-10) of the same compound?
Answer: 37.5 µM (inactive)

Question: What about the GI50 (U-251) of the same compound?
Answer: 30.8 µM (inactive)

Question: What about the GI50 (UACC-257) of the same compound?
Answer: 25.8 µM (inactive)

Question: And the GI50 (UO-31)?
Answer: 26.4 µM (inactive)

Question: Which results are given for `CC1=NC(C)(C)[N+]([O-])=C1`?
Answer: GI50 (ACHN): > 10 µM (inactive); GI50 (EKVX): > 10 µM (inactive); GI50 (HCT-15): > 10 µM; GI50 (HOP-62): > 10 µM (inactive); GI50 (IGROV-1): > 10 µM (inactive); GI50 (K562): > 10 µM (inactive); GI50 (KM12): > 10 µM (inactive); GI50 (M14): > 10 µM (inactive); GI50 (MDA-MB-231): > 10 µM (inactive); GI50 (NCI-H226): > 10 µM (inactive); GI50 (OVCAR-8): > 10 µM (inactive); GI50 (SF-268): > 10 µM (inactive); GI50 (SK-MEL-2): > 10 µM (inactive); GI50 (SK-OV-3): > 10 µM (inactive); GI50 (SN12C): > 10 µM (inactive); GI50 (SNB-19): > 10 µM (inactive); GI50 (TK-10): > 10 µM (inactive); GI50 (U-251): > 10 µM (inactive); GI50 (UACC-257): > 10 µM (inactive); GI50 (UO-31): > 10 µM (inactive)

Question: How did the GI50 (ACHN) turn out when `O=C1Oc2ccccc2C(=O)/C1=C1/C=C(c2ccccc2)SS1` was run?
Answer: > 100 µM (inactive)

Question: What about the GI50 (EKVX) of the same compound?
Answer: > 100 µM (inactive)

Question: And the GI50 (HCT-15)?
Answer: 40 µM

Question: What about the GI50 (HOP-62) of the same compound?
Answer: > 100 µM (inactive)

Question: What about the GI50 (IGROV-1) of the same compound?
Answer: 86.5 µM (inactive)

Question: What about the GI50 (K562) of the same compound?
Answer: 42.5 µM (inactive)

Question: And the GI50 (KM12)?
Answer: > 100 µM (inactive)

Question: And the GI50 (M14)?
Answer: 43.8 µM (inactive)

Question: What about the GI50 (MDA-MB-231) of the same compound?
Answer: 80.4 µM (inactive)

Question: And the GI50 (NCI-H226)?
Answer: 24.3 µM (inactive)

Question: And the GI50 (OVCAR-8)?
Answer: > 100 µM (inactive)

Question: What about the GI50 (SF-268) of the same compound?
Answer: 86.7 µM (inactive)

Question: And the GI50 (SK-MEL-2)?
Answer: > 100 µM (inactive)

Question: What about the GI50 (SK-OV-3) of the same compound?
Answer: > 100 µM (inactive)

Question: And the GI50 (SN12C)?
Answer: 69 µM (inactive)

Question: And the GI50 (SNB-19)?
Answer: 81.8 µM (inactive)

Question: And the GI50 (TK-10)?
Answer: > 100 µM (inactive)

Question: And the GI50 (U-251)?
Answer: 76 µM (inactive)

Question: And the GI50 (UACC-257)?
Answer: > 100 µM (inactive)

Question: What about the GI50 (UO-31) of the same compound?
Answer: > 100 µM (inactive)

Question: With `c1ccc(C2C3=C(c4ccccc4CC3)N3c4cc5c(cc4=NC34CCCCC24)Nc2ccccc2N=5)cc1` (stereo not given) as the compound, how does the GI50 (ACHN) read?
Answer: 7.26 µM (inactive)

Question: And the GI50 (EKVX)?
Answer: > 10 µM (inactive)

Question: What about the GI50 (HCT-15) of the same compound?
Answer: 8.39 µM

Question: And the GI50 (HOP-62)?
Answer: > 10 µM (inactive)

Question: And the GI50 (IGROV-1)?
Answer: > 10 µM (inactive)

Question: And the GI50 (K562)?
Answer: 5.27 µM (inactive)

Question: And the GI50 (KM12)?
Answer: > 10 µM (inactive)

Question: What about the GI50 (M14) of the same compound?
Answer: 6.61 µM (inactive)

Question: What about the GI50 (MDA-MB-231) of the same compound?
Answer: 9.79 µM (inactive)

Question: And the GI50 (NCI-H226)?
Answer: 6.58 µM (inactive)

Question: And the GI50 (OVCAR-8)?
Answer: > 10 µM (inactive)

Question: And the GI50 (SF-268)?
Answer: > 10 µM (inactive)

Question: What about the GI50 (SK-MEL-2) of the same compound?
Answer: > 10 µM (inactive)

Question: What about the GI50 (SK-OV-3) of the same compound?
Answer: > 10 µM (inactive)

Question: What about the GI50 (SN12C) of the same compound?
Answer: > 10 µM (inactive)

Question: And the GI50 (SNB-19)?
Answer: > 10 µM (inactive)

Question: What about the GI50 (TK-10) of the same compound?
Answer: > 10 µM (inactive)

Question: What about the GI50 (U-251) of the same compound?
Answer: > 10 µM (inactive)

Question: And the GI50 (UACC-257)?
Answer: > 10 µM (inactive)

Question: What about the GI50 (UO-31) of the same compound?
Answer: 6.55 µM (inactive)

Question: Which results are given for `Cc1ccc(/N=N/c2c(O)ccc3cc(S(=O)(=O)O)ccc23)cc1`?
Answer: GI50 (ACHN): > 100 µM (inactive); GI50 (EKVX): 29.6 µM (inactive); GI50 (HCT-15): > 100 µM; GI50 (HOP-62): > 100 µM (inactive); GI50 (IGROV-1): 64.3 µM (inactive); GI50 (K562): > 100 µM (inactive); GI50 (KM12): 74.6 µM (inactive); GI50 (M14): > 100 µM (inactive); GI50 (MDA-MB-231): 18.8 µM (inactive); GI50 (NCI-H226): > 100 µM (inactive); GI50 (OVCAR-8): > 100 µM (inactive); GI50 (SF-268): 85.5 µM (inactive); GI50 (SK-MEL-2): > 100 µM (inactive); GI50 (SK-OV-3): > 100 µM (inactive); GI50 (SN12C): > 100 µM (inactive); GI50 (SNB-19): > 100 µM (inactive); GI50 (TK-10): > 100 µM (inactive); GI50 (U-251): > 100 µM (inactive); GI50 (UACC-257): > 100 µM (inactive); GI50 (UO-31): > 100 µM (inactive)
